Assay [1] has as its system bloodstream forms of T. brucei 427-221a. The assay can be described thus: Alamar Blue growth inhibition assay, T. brucei bloodstream forms. Type of assay: cell-based, Trypanosoma brucei. The conditions noted are these: for IC50 ratio T. brucei/HL-60: IC50 ratio of cytotoxic to trypanocidal activity (selectivity index); for IC50: read-out: IC50 T. brucei. The method, then: (§1) The anti-trypanosomal activities and the general cytotoxicities of chelators were evaluated using the Alamar Blue® assay. For each reagent, the 50% inhibitory concentration (IC50) value, i.e. the concentration of a compound necessary to reduce the growth rate of the cells by 50% of that of controls, was determined.
(§2) Bloodstream forms of T. brucei TC221 was derived from the stock 427 [24] and was obtained from Prof. Peter Overath (Max-Planck Institute für Biologie, Tübingen, Germany). The animal origin of the T. brucei stock 427 cannot be definitely clarified anymore. Bloodstream forms of T. congolense STIB910 was cloned from T. congolense STIB249 which was isolated from a lion in Tansania in 1971 [25]. T. congolense STIB910 was kindly provided by Prof. Reto Brun (Swiss Tropical Institute, Switzerland). Human myeloid leukaemia HL-60 cells were obtained from the Deutsche Sammlung von Mikroorganismen und Zellkulturen GmbH (Braunschweig, Germany).
(§3) Bloodstream forms of T. brucei and T. congolense were grown in Baltz medium (EMEM plus 25 mM HEPES, 2.5 mM glucose, 1 mM Na-pyruvate, 0.05 mM hypoxanthine, 0.001 mM thymidine, 0.04 mM adenosine, 0.025 mM bathocuproindisulfonic acid, pH 7.5, 10 ml/l nonessential amino acids (100×)) supplemented with 16.7% heat-inactivated foetal bovine serum and goat serum, respectively, and 0.2 mM 2-mercaptoethanol. Human myeloid leukaemia HL-60 cells were propagated in RPMI 1640 medium supplemented with 2 mM L-glutamine and 10% heat-inactivated foetal bovine serum. All cultures were maintained in a humidified atmosphere containing 5% CO2 at 37°C (T. brucei and HL-60 cells) or at 34°C (T. congolense).
(§4) Cells were seeded into 96-well tissue culture plates in 200 μl medium containing various concentrations of chelators dissolved in H2O (deferoxamine, 2,3-dihydroxybenzoic acid, ethylenediamine-di-o-hydroxyphenylacetic acid, 5-sulfosalicylic acid, tropolone, 5-methyl-tropolone, 2,2'-bipyridine, 1,10-phenanthroline), 99% ethanol (2,4,6-tris(2pyridyl)-1,3,5-triazine, 4,7-diphenyl-1,10-phenanthroline, 8-hydroxyquinoline, dimethylglyoxime, quercetin), or 100% DMSO (bathocuproine). The controls contained the respective solvent alone. […] To ensure that the cells were in logarithmic growth phase during the entire experiment, they were seeded at an initial density of 1 × 10^4 T. brucei/ml, 4 × 10^5 T. congolense/ml, and 1 × 10^5 HL-60/ml, respectively. After 24 h (trypanosomes) or 43 h (HL-60) incubation, 20 μl of the colorimetric viability indicator Alamar Blue® was added to each well. The cells were incubated for a further 24 h (trypanosomes) or 5 h (HL-60) so that the total incubation time was 48 h. Then, the plates were read on a Dynatech MR5000 ELISA reader (Denkendorf, Germany), using a test wavelength of 550 nm and a reference wave length of 630 nm. Each test was set up in duplicate and repeated three times. The IC50 value was determined by linear interpolation according to the method described in [27].
In general terms: The colour change of resazurin is a common sign of viable cells or microbes.

Assay [2] relates to bloodstream forms of T. congolense STIB910. The assay can be described thus: Alamar Blue growth inhibition assay, T. congolense bloodstream forms. Type of assay: cell-based, Trypanosoma congolense. The conditions noted are these: for IC50 ratio T. congolense/HL-60: IC50 ratio of cytotoxic to trypanocidal activity (selectivity index); for IC50: read-out: IC50 T. congolense. As to the method:
as §1, §2, §3, §4

The subject of assay [3] is human myeloid leukaemia HL-60 cells. The assay can be described thus: Alamar Blue general cytotoxicity assay, HL-60 cells. It counts as cell-based. The following applies: read-out: IC50 HL-60 cells. As to the method:
as §1, §2, §3, §4

The subject of assay [4] is bloodstream forms of T. congolense STIB910. Further details: method as in PMID 11582539. The conditions noted are these: bloodstream forms of T. congolense STIB910, identical experimental conditions; cited from earlier work.
For assay [5], the system named is bloodstream forms of T. brucei 427-221a. Also on record: method as in PMID 11582539. The conditions noted are these: cited from earlier work.
[6] abbreviates: Trypanosoma brucei, bloodstream forms T. brucei 427-221a, 48 h total incubation, Alamar Blue, 37°C.
The mark [7] stands for this setting: Trypanosoma congolense, bloodstream forms T. congolense STIB910, 48 h total incubation, Alamar Blue, 34°C.
The mark [8] stands for this setting: human myeloid leukaemia HL-60 cells, 48 h total incubation, Alamar Blue.
The mark [9] stands for this setting: Trypanosoma congolense, STIB910, 48 h.
Where [10] appears, read: bloodstream forms T. brucei 427-221a, 48 h total incubation, Alamar Blue, 37°C.

Like-named read-outs stand apart in the source and are kept apart here.

A word on the IC50: it is the point on the concentration scale where inhibition reaches its midpoint.

With `c1cnc2c(c1)ccc1cccnc12` [1,10-Phenanthroline], the “IC50 ratio T. brucei/HL-60” value in assay [1] turned out to be 2.6. The half-maximal inhibitory concentration (IC50) in assay [1] (setting [6]) came out at 3.3 µM; in assay [2] (setting [7]), 5.3 µM; in assay [3] (setting [8]), 8.5 µM. For the same compound, in assay [2], the “IC50 ratio T. congolense/HL-60” value is given as 1.6.
`c1ccc(-c2ccccn2)nc1` [2,2'-Bipyridine]: the IC50 in assay [1] (Trypanosoma brucei, 48 h) was found to be 46.2 µM; in assay [2] (setting [9]), 67 µM; in assay [3] (Homo sapiens, HL-60, 48 h), 28.3 µM.
With `O=C(O)c1cccc(O)c1O` [2,3-Dihydroxybenzoic acid], in assay [1] (setting [6]), the IC50 was 220 µM.
With `c1ccc(-c2nc(-c3ccccn3)nc(-c3ccccn3)n2)nc1` [2,4,6-Tris(2-pyridyl)-1,3,5-triazine], in assay [1], the “IC50 ratio T. brucei/HL-60” value is 3.2. Moreover, the results for the IC50 in assay [1] (setting [6]), in assay [2] (setting [7]) and in assay [3] (setting [8]) were 28.6 µM, 75 µM and 90.1 µM, respectively. Further, in assay [2], the “IC50 ratio T. congolense/HL-60” value turned out to be 1.2.
Regarding `c1ccc(-c2ccnc3c2ccc2c(-c4ccccc4)ccnc23)cc1` [4,7-Diphenyl-1,10-phenanthroline], the IC50 in assay [1] (setting [6]) was 2 µM; in assay [2] (setting [7]), 4.5 µM; in assay [3] (setting [8]) it was 48.3 µM.
Consider `Cc1ccc(O)c(=O)cc1` [5-Methyl-tropolone], for which the “IC50 ratio T. brucei/HL-60” value in assay [1] was determined as 2.0. Besides, the IC50 came out at 15.7 µM in assay [1] (setting [10]); 20 µM in assay [2] (bloodstream forms T. congolense STIB910, 48 h total incubation, Alamar Blue, 34°C); 31.1 µM in assay [3] (setting [8]). Further, in assay [2], the “IC50 ratio T. congolense/HL-60” value is 1.6.
As to `O=C(O)c1cc(S(=O)(=O)O)ccc1O` [5-Sulfosalicylic acid], the IC50 in assay [1] (Trypanosoma brucei, 48 h) is more than 1000 µM; in assay [2] (setting [9]), more than 1000 µM; in assay [3] (Homo sapiens, HL-60, 48 h), more than 1000 µM.
Take `Oc1cccc2cccnc12` [8-Hydroxyquinoline]: the IC50 in assay [1] (Trypanosoma brucei, 48 h) worked out at 2.1 µM; in assay [2] (setting [9]) it was 206 µM; in assay [3] (Homo sapiens, HL-60, 48 h) it was 7.7 µM.
On to `Cc1cc(-c2ccccc2)c2ccc3c(-c4ccccc4)cc(C)nc3c2n1` [Bathocuproine, 2,9-dimethyl-4,7-diphenyl-1,10-phenanthroline], for which the “IC50 ratio T. brucei/HL-60” value in assay [1] is listed as more than 3.3. For the same compound, the IC50 in assay [1] (setting [6]) was 3 µM; in assay [2] (setting [7]) it was more than 10 µM; in assay [3] (setting [8]), more than 10 µM.
Regarding `CC(=O)N(O)CCCCCNC(=O)CCC(=O)N(O)CCCCCNC(=O)CCC(=O)N(O)CCCCCN` [Deferoxamine], the IC50 was 3.3 µM in assay [1] (Trypanosoma brucei, 48 h); 3.4 µM in assay [2] (setting [9]); 97 µM in assay [3] (Homo sapiens, HL-60, 48 h).
With `CC(=NO)C(C)=NO` [Dimethylglyoxime], the IC50 in assay [1] (setting [6]), in assay [2] (setting [7]) and in assay [3] (setting [8]) was more than 100 µM throughout.
For the compound `O=C(O)C(NCCNC(C(=O)O)c1ccccc1O)c1ccccc1O` (stereo not drawn) [Ethylenediamine-di-o-hydroxyphenylacetic acid], the “IC50 ratio T. brucei/HL-60” value in assay [1] is listed as 2.7. Moreover, the half-inhibitory concentration (IC50) was found to be 120 µM in assay [1] (setting [10]) and 325 µM in assay [3] (setting [8]).
For `O=c1c(O)c(-c2ccc(O)c(O)c2)oc2cc(O)cc(O)c12` [Quercetin], in assay [1], the “IC50 ratio T. brucei/HL-60” value is more than 6.1. For the same compound, the IC50 in assay [1] (setting [6]) is 16.3 µM; in assay [2] (setting [7]), 62.6 µM; in assay [3] (setting [8]) it was more than 100 µM. Further, the “IC50 ratio T. congolense/HL-60” value in assay [2] is reported as more than 1.6.
For `O=c1cccccc1O` [Tropolone] the same measures were 0.5, 12.5 µM, 18.7 µM, 6.2 µM and 0.3.
`CC(=O)NCC(=O)O.CC(=O)NCC(=O)O.N=C(N)c1ccc(N=NNc2ccc(C(=N)N)cc2)cc1` [diminazene aceturate]: in assay [4], the IC50 is 0.5 µM.
Take `Cc1ccc(C(=O)Nc2ccc(S(=O)(=O)O)c3cc(S(=O)(=O)O)cc(S(=O)(=O)O)c23)cc1NC(=O)c1cccc(NC(=O)Nc2cccc(C(=O)Nc3cc(C(=O)Nc4ccc(S(=O)(=O)O)c5cc(S(=O)(=O)O)cc(S(=O)(=O)O)c45)ccc3C)c2)c1` [suramin]: the IC50 in assay [5] (bloodstream forms of T. brucei 427-221a, identical experimental conditions) is 0.4 µM. Further, in assay [5] (cytotoxic/trypanocidal activity, drug used for sleeping sickness), the “IC50 ratio (selectivity index)” value is 1944.

The values above are taken from publication PMC1563472, “In vitro growth inhibition of bloodstream forms of Trypanosoma brucei and Trypanosoma congolense by iron chelators” (Kinetoplastid Biology and Disease, 2006).
